From patent publication US10421760B2, “Pyrrolo[2,3-d]pyrimidine compound or salt thereof” (TAIHO PHARMACEUTICAL CO., LTD., priority 2015, dated 2019)

Experiments:
[1] = molecular target: purified recombinant human JAK3 protein (Homo sapiens (Human), UniProt P52333); test: JAK3 kinase-inhibiting activity (mobility shift, LabChip EZ Reader II); type: biochemical; settings: for IC50: ATP 5 μM, 25° C., 80 minutes
Protocol: 3) Measurement of JAK3 Kinase-Inhibiting Activity
The activity of the compound of the present invention to inhibit the activity of JAK3 kinase was measured.
(§1) Among materials for the measurement of this inhibiting activity, a substrate peptide and a kinase protein were acquired as follows. As such a substrate peptide, a substrate peptide for QSS Assist JAK3-MSA assay kit (Carna Biosciences, Inc.) was purchased. As such a kinase protein, a purified recombinant human JAK3 protein (Carna Biosciences, Inc.) was purchased.
The method for measuring the inhibiting activity is as follows. First, a serial dilution of the compound of the present invention was prepared by the same method as that described in the above section regarding JAK1. This serial dilution solution (the final concentration of DMSO upon a kinase reaction: 5.0%) or DMSO (final concentration: 5.0%) was mixed with a solution comprising the substrate peptide (final concentration: 1 μM), magnesium chloride (final concentration: 5 mM) and ATP (final concentration: 5 μM) in a buffer for kinase reaction (20 mM HEPES (pH 7.5), 2 mM dithiothreitol and 0.01% Triton X-100). Thereafter, a JAK3 protein was further added to the mixed solution, and the obtained mixture was then incubated at 25° C. for 80 minutes to carry out a kinase reaction. To the reaction solution, EDTA was added to a final concentration of 30 mM, so as to terminate the reaction. After termination of the reaction, the measurement and the data analysis were carried out by the same methods as those described in the above section regarding JAK1.

[2] = molecular target: purified recombinant human JAK1 protein (Homo sapiens (Human), UniProt P23458); test: JAK1 kinase-inhibiting activity (mobility shift, LabChip EZ Reader II); type: biochemical; settings: ATP 75 μM, 25° C., 120 minutes
Sequence of purified recombinant human JAK1 protein (P23458 whole entry): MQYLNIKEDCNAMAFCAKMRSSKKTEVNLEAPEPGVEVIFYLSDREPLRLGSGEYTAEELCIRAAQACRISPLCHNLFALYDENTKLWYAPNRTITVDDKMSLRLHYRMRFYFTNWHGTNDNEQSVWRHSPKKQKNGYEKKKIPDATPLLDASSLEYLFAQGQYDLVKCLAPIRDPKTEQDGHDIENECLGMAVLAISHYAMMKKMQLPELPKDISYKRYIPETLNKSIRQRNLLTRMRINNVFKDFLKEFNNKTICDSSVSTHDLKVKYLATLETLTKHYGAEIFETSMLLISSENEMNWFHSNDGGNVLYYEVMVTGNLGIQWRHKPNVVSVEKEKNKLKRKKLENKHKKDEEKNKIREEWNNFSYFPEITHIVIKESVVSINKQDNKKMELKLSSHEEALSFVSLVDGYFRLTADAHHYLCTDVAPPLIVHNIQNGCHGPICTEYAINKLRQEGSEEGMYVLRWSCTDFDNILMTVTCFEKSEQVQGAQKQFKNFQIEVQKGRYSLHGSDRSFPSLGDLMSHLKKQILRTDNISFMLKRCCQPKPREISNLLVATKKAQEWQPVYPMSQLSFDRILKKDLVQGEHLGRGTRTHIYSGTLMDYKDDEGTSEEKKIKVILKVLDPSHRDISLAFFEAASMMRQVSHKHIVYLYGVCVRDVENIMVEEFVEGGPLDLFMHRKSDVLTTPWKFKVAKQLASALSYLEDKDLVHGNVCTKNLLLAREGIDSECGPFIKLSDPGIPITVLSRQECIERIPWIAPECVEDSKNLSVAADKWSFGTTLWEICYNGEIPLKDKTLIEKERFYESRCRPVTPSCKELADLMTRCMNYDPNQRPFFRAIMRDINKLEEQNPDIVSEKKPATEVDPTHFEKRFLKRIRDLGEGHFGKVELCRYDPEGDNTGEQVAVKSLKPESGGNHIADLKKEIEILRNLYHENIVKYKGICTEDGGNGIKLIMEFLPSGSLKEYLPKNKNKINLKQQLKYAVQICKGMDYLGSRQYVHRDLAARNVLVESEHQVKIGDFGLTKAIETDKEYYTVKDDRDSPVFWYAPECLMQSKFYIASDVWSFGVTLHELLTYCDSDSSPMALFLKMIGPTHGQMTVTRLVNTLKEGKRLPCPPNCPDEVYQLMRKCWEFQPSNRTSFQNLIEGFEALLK
Protocol: 1) Measurement of JAK1 Kinase-Inhibiting Activity
The activity of the compound of the present invention to inhibit the activity of JAK1 kinase was measured.
as §1, with “JAK1-MSA” for “JAK3-MSA”, “JAK1” for “JAK3”
The method for measuring the inhibiting activity is as follows. First, the compounds of the present invention were each dissolved in dimethyl sulfoxide (DMSO), and a serial dilution was then prepared using DMSO. Subsequently, a serial dilution solution of the compound (the final concentration of DMSO upon a kinase reaction: 5.0%) or DMSO (final concentration: 5.0%) was mixed with a solution comprising the substrate peptide (final concentration: 1 μM), magnesium chloride (final concentration: 5 mM) and ATP (final concentration: 75 μM) in a buffer for kinase reaction (20 mM HEPES (pH 7.5), 2 mM dithiothreitol and 0.01% Triton X-100). Thereafter, a JAK1 protein was further added to the mixed solution, and the obtained mixture was then incubated at 25° C. for 120 minutes to carry out a kinase reaction. To the reaction solution, EDTA was added to a final concentration of 30 mM, so as to terminate the reaction. Finally, using LabChip EZ Reader II (Perkin Elmer Corp.), an unphosphorylated substrate peptide (S) and a phosphorylated peptide (P) were subjected to microchannel capillary electrophoresis, so that the two peptides were separated from each other and were then detected. The amount of a phosphorylation reaction was obtained based on the heights of the peaks of S and P, and the concentration of the compound capable of inhibiting 50% of the phosphorylation reaction was defined as an IC50 value (nM).

[3] = molecular target: purified recombinant human JAK2 protein (Homo sapiens (Human), UniProt O60674); test: JAK2 kinase-inhibiting activity (mobility shift, LabChip EZ Reader II); type: biochemical; settings: ATP 10 μM, 25° C., 80 minutes
Sequence of purified recombinant human JAK2 protein (O60674 whole entry): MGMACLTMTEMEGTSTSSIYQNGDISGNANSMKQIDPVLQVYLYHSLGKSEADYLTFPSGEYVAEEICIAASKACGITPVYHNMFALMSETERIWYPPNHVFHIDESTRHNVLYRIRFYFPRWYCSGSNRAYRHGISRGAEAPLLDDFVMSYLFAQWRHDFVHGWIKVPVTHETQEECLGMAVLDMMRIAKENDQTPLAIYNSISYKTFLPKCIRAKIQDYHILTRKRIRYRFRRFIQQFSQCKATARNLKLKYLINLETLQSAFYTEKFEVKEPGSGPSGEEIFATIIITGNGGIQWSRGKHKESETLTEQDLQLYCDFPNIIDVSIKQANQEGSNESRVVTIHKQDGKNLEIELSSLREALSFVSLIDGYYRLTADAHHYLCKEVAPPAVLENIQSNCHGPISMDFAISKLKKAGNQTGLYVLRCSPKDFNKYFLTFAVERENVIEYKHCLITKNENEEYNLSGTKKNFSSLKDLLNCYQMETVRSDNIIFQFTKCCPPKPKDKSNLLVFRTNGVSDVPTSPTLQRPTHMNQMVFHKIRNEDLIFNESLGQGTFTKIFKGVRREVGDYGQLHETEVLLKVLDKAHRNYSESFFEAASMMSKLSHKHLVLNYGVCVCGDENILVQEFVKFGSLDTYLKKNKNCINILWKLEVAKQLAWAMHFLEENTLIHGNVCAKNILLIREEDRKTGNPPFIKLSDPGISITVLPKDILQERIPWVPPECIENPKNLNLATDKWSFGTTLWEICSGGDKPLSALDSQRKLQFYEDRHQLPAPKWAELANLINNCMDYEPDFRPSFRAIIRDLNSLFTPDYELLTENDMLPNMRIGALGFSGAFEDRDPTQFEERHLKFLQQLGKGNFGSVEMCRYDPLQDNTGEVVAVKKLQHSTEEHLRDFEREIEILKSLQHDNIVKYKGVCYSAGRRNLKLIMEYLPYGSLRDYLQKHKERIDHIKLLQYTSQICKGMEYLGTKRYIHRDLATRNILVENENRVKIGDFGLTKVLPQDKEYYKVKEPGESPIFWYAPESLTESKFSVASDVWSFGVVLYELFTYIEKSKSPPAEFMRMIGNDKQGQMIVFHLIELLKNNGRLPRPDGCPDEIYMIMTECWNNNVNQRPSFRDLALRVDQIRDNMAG
Protocol: 2) Measurement of JAK2 Kinase-Inhibiting Activity
The activity of the compound of the present invention to inhibit the activity of JAK2 kinase was measured.
as §1, with “FL-Peptide 22 (Perkin Elmer Corp.)” for “a substrate peptide for QSS Assist JAK3-MSA assay kit (Carna Biosciences, Inc.)”, “JAK2” for “JAK3”
The method for measuring the inhibiting activity is as follows. First, a serial dilution of the compound of the present invention was prepared by the same method as that described in the above section regarding JAK1. This serial dilution solution (the final concentration of DMSO upon a kinase reaction: 5.0%) or DMSO (final concentration: 5.0%) was mixed with a solution comprising the substrate peptide (final concentration: 1 μM), magnesium chloride (final concentration: 10 mM) and ATP (final concentration: 10 μM) in a buffer for kinase reaction (15 mM Tris (pH 7.5), 2 mM dithiothreitol and 0.01% Tween 20). Thereafter, a JAK2 protein was further added to the mixed solution, and the obtained mixture was then incubated at 25° C. for 80 minutes to carry out a kinase reaction. To the reaction solution, EDTA was added to a final concentration of 30 mM, so as to terminate the reaction. After termination of the reaction, the measurement and the data analysis were carried out by the same methods as those described in the above section regarding JAK1.

human PBMC = test: IL-2-dependent growth of human peripheral blood mononuclear cells (CellTiter-Glo); type: cell-based; settings: 48 h, IL-2 2 ng/mL stimulation, 2 days
Protocol: The activity of the compound of the present invention to inhibit the IL-2-dependent growth reaction of human PBMC, which is caused by JAK3, was measured (Arthritis Rheum. 2010; 62(8): 2283-93).
Using a medium comprising 10 μg/mL PHA-M (Sigma) (which is RPMI-1640 (Sigma) comprising 10% human serum type AB (MP Biomedicals)), human PBMC (C.T.L.) (cell density: 1×10^6 cells/mL) was cultured at 37° C. in a culture vessel comprising 5% carbon dioxide for 3 days. Thereafter, the culture was washed with RPMI-1640 four times, and a medium (RPMI-1640 comprising 10% human serum type AB) was then added to the resultant culture to prepare a cell suspension. The cells (1×10^4 cells per well) and the serially diluted compound of the present invention were added to each well of a 96-well U-bottom microplate, and the thus obtained mixture was then cultured at 37° C. in a culture vessel comprising 5% carbon dioxide for 30 minutes. After completion of the culture, recombinant human IL-2 (Peprotech) was added to the culture to a final concentration of 2 ng/mL, and the obtained mixture was then stirred at 37° C. in a culture vessel comprising 5% carbon dioxide for 2 days (1×10^4 cells/100 μl/each well). After completion of the culture, the resultant was left at a room temperature for 30 minutes, and 100 μl of CellTiter-Glo Luminescent Cell Viability Assay (Promega) was then added to the resultant, followed by stirring it. Thereafter, the reaction mixture was left for 10 minutes, and the amount of a luminescence derived from living cells in each well was then measured using a microplate reader (TECAN). The inhibition rate of the present compound to the cell growth caused by IL-2 stimulation was calculated, and the concentration of the compound capable of inhibiting 50% of the cell growth was defined as an IC50 value (nM).

Sequence of purified recombinant human JAK3 protein (P52333 whole entry): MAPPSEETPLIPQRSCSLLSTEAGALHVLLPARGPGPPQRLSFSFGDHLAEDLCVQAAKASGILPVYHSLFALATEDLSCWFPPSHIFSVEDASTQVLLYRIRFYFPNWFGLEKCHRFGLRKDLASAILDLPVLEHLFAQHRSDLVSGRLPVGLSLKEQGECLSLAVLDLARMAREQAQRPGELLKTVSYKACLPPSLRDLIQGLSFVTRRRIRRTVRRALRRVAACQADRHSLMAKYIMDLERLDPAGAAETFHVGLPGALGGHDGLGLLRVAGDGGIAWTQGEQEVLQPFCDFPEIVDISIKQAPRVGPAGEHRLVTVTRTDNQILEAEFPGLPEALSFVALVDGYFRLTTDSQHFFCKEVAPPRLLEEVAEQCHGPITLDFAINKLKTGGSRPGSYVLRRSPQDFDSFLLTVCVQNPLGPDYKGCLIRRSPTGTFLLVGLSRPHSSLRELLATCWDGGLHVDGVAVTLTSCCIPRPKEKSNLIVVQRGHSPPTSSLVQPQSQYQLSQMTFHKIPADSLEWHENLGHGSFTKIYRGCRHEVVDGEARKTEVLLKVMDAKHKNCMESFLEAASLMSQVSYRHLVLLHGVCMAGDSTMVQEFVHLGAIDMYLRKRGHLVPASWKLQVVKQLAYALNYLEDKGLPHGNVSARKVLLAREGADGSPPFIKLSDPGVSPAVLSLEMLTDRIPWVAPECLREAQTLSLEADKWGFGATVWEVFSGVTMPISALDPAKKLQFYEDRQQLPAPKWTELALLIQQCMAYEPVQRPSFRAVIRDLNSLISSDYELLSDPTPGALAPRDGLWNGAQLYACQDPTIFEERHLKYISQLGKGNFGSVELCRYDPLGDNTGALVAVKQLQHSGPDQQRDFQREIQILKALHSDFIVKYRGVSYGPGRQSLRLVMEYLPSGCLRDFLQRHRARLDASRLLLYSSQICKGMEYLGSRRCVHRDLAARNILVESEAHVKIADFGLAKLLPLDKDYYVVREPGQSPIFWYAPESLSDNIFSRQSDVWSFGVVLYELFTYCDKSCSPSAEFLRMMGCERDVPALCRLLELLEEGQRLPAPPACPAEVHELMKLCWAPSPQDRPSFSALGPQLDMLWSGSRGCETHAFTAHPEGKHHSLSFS

With `C=C(C)C(=O)NC1CCC=C(c2ncnc3[nH]cc(-c4ccccc4)c23)C1` (stereo not shown) [Comparative Example 1, N-(3-(5-Phenyl-7H-pyrrolo[2,3-d]pyrimidin-4-yl)cyclohex-3-en-1-yl)methacrylamide, reference compound] the IC50 [1] was 44 nM, the “JAK3-inhibiting activity attenuated in comparison to the compound of the present invention” value (from here on “JAK3-inhibiting activity attenuated”) ([1]; in terms of IC50 value) was ≥ 20 times and the IC50 [2] was 880 nM.
`C=CC(=O)NC1CC=C(c2ncnc3[nH]cc(-c4ccccc4)c23)C1` (stereo not shown) [Compound 9, N-(3-(5-Phenyl-7H-pyrrolo[2,3-d]pyrimidin-4-yl)cyclopent-3-en-1-yl)acrylamide] was tested, and the IC50 [1] was < 0.3 nM, the IC50 [2] was 2100 nM and the IC50 [3] was 880 nM. It also gave an IC50 (human PBMC) of 99 nM.
`C=CC(=O)NC1CC=C(c2ncnc3[nH]cc(-c4ccco4)c23)C1` (stereo not shown) [Compound 8, N-(3-(5-(Furan-2-yl)-7H-pyrrolo[2,3-d]pyrimidin-4-yl)cyclopent-3-en-1-yl)acrylamide] was tested, and the IC50 [1] was < 0.3 nM, the IC50 [2] was 1400 nM and the IC50 [3] was 430 nM. The IC50 (human PBMC) was 83 nM.
For `C=CC(=O)NC1C=C(c2ncnc3[nH]cc(-c4ccccc4)c23)CC1` (stereo not shown) [Compound 10, N-(3-(5-Phenyl-7H-pyrrolo[2,3-d]pyrimidin-4-yl)cyclopent-2-en-1-yl)acrylamide], the IC50 [1] was 0.68 nM and the IC50 [3] was 660 nM.
`C=CC(=O)NC1C=C(c2ncnc3[nH]cc(-c4cccs4)c23)CCC1` (stereo not shown) [Compound 13, N-(3-(5-(Thiophen-2-yl)-7H-pyrrolo[2,3-d]pyrimidin-4-yl)cyclohex-2-en-1-yl)acrylamide] was tested, and the IC50 [1] was < 0.3 nM, the IC50 [2] was 3200 nM and the IC50 [3] was 490 nM. For the same compound, the IC50 (human PBMC) was 110 nM.
In the case of `C=CC(=O)NC1CCC=C(c2ncnc3[nH]cc(-c4ccc(C)cc4)c23)C1` (stereo not shown) [Comparative Example 4, N-(3-(5-(p-Tolyl)-7H-pyrrolo[2,3-d]pyrimidin-4-yl)cyclohex-3-en-1-yl)acrylamide, reference compound], the IC50 (human PBMC) is reported as > 1000 nM.
`C=CC(=O)NC1CCC=C(c2ncnc3[nH]cc(-c4ccsc4)c23)C1` (stereo not shown) [Compound 3, N-(3-(5-(Thiophen-3-yl)-7H-pyrrolo[2,3-d]pyrimidin-4-yl)cyclohex-3-en-1-yl)acrylamide] was tested, and the IC50 [1] was < 0.3 nM, the IC50 [2] was 1500 nM and the IC50 [3] was 850 nM.
With `C=CC(=O)NC1C=C(c2ncnc3[nH]cc(-c4ccsc4)c23)CCC1` (stereo not shown) [Compound 14, N-(3-(5-(Thiophen-3-yl)-7H-pyrrolo[2,3-d]pyrimidin-4-yl)cyclohex-2-en-1-yl)acrylamide] the IC50 [1] was < 0.3 nM, the IC50 [2] was 5600 nM and the IC50 [3] was 1200 nM. It also gave an IC50 (human PBMC) of 110 nM.
In the case of `C/C=C/C(=O)NC1CCC=C(c2ncnc3[nH]cc(-c4ccccc4)c23)C1` (stereo not shown) [Comparative Example 2, (E)-N-(3-(5-Phenyl-7H-pyrrolo[2,3-d]pyrimidin-4-yl)cyclohex-3-en-1-yl)but-2-enamide, reference compound], the IC50 [1] is reported as 27 nM, the “JAK3-inhibiting activity attenuated” value ([1]; in terms of IC50 value) is reported as ≥ 20 times and the IC50 [2] is reported as 730 nM.
With `C=CC(=O)NC1C=C(c2ncnc3[nH]cc(-c4ccoc4)c23)CCC1` (stereo not shown) [Compound 16, N-(3-(5-(Furan-3-yl)-7H-pyrrolo[2,3-d]pyrimidin-4-yl)cyclohex-2-en-1-yl)acrylamide] the IC50 [1] was 0.77 nM, the IC50 [2] was 4900 nM and the IC50 [3] was 1000 nM.
Compound `C=CC(=O)NC1C=C(c2ncnc3[nH]cc(-c4ccco4)c23)CCC1` (stereo not shown) [Compound 15, N-(3-(5-(Furan-2-yl)-7H-pyrrolo[2,3-d]pyrimidin-4-yl)cyclohex-2-en-1-yl)acrylamide] has an IC50 [1] of 0.33 nM, an IC50 [2] of 2600 nM and an IC50 [3] of 450 nM.
In the case of `C=CC(=O)NC1CCC=C(c2ncnc3[nH]cc(-c4ccoc4)c23)C1` (stereo not shown) [Compound 4, N-(3-(5-(Furan-3-yl)-7H-pyrrolo[2,3-d]pyrimidin-4-yl)cyclohex-3-en-1-yl)acrylamide], the IC50 [1] is reported as 0.42 nM, the IC50 [2] is reported as 2900 nM and the IC50 [3] is reported as 1300 nM.
`C=CC(=O)NC1CCC=C(c2ncnc3[nH]cc(-c4ncccn4)c23)C1` (stereo not shown) [Comparative Example 8, N-(3-(5-(Pyrimidin-2-yl)-7H-pyrrolo[2,3-d]pyrimidin-4-yl)cyclohex-3-en-1-yl)acrylamide, reference compound] was tested, and the IC50 [1] was 21.4 nM, the “JAK3-inhibiting activity attenuated” value ([1]; in terms of IC50 value) was ≥ 20 times and the IC50 [3] was > 10000 nM.
For `C1=C(c2ncnc3[nH]ccc23)CCCC1` [Comparative Example 10, 4-(Cyclohex-1-en-1-yl)-7H-pyrrolo[2,3-d]pyrimidine, reference compound], the IC50 [1] was 125 nM, the “JAK3-inhibiting activity attenuated” value ([1]; in terms of IC50 value) was ≥ 100 times and the “selectivity to JAK3 versus JAK1 or JAK2” value ([1]; in terms of IC50 value) was “not observed”. For the same compound, the IC50 [2] was 414 nM and the IC50 [3] was 166 nM.
For `C=CC(=O)NC1CCC=C(c2ncnc3[nH]cc(-c4ccccc4)c23)C1` (stereo not shown) [Compound 1, N-(3-(5-phenyl-7H-pyrrolo[2,3-d]pyrimidin-4-yl)cyclohex-3-en-1-yl)acrylamide], the IC50 [1] was < 0.3 nM, the IC50 [2] was 880 nM and the IC50 [3] was 470 nM.
For `C=CC(=O)NC1CCC=C(c2ncnc3[nH]cc(-c4cc5ccccc5o4)c23)C1` (stereo not shown) [Comparative Example 9, N-(3-(5-(Benzofuran-2-yl)-7H-pyrrolo[2,3-d]pyrimidin-4-yl)cyclohex-3-en-1-yl)acrylamide, reference compound], the IC50 (human PBMC) was > 1000 nM.
For `C=CC(=O)NC1C=C(c2ncnc3[nH]cc(-c4ccccc4)c23)CCC1` (stereo not shown) [Compound 12, N-(3-(5-Phenyl-7H-pyrrolo[2,3-d]pyrimidin-4-yl)cyclohex-2-en-1-yl)acrylamide], the IC50 [1] was 0.35 nM, the IC50 [2] was 3200 nM and the IC50 [3] was 870 nM.
